These are literature values, as cited in US6375634B1, “APPARATUS AND METHOD TO ENCAPSULATE, KILL AND REMOVE MALIGNANCIES, INCLUDING SELECTIVELY INCREASING ABSORPTION OF X-RAYS AND INCREASING FREE-RADICAL DAMAGE TO RESIDUAL TUMORS TARGETED BY IONIZING AND NON-IONIZING RADIATION THERAPY” (Oncology Innovations, Inc., priority 1997, dated 2002).

“Also recorded” adds a separate entry of the source.

For series [1] the following is noted: iron overload states.
Series [2] relates to Chinese hamster ovary cells.
The test system of series [3] is DNA.
In series [4] the test system is human pancreatic adenocarcinoma AsPC-1 cells.
Series [5] concerns DNA. The conditions noted are these: in the presence of hydrogen peroxide, among ferric iron chelates.
The conditions of series [6]: presence of l-histidine.

In the case of `[Fe]` [iron], the “tissue iron level at which the heart sustains injury” value in series [1] was “approximately one thousand”. Turning to ferritin, in series [2] (32 micrograms/ml), the toxicity result is “nontoxic; also recorded: not toxic”. For the same compound, in series [2] (32 micrograms/ml ferritin, 4.0 Gray), the “reduction of clonogenic-cell survival after x-irradiation” value is “approximately 75%”. In addition, the “clonogenic-cell survival after x-irradiation” value in series [2] (32 micrograms/ml ferritin, 4.0 Gray (about 0.66 without ferritin)) is given as ~0.17.

For `OO` [hydrogen peroxide], the DNA injury entry in the series with DNA [3] (80 micromoles hydrogen peroxide, absence of histidine) was “no injury”.

As to `Cc1c(N)nc([C@H](CC(N)=O)NC[C@H](N)C(N)=O)nc1C(=O)N[C@H](C(=O)N[C@H](C)[C@@H](O)[C@H](C)C(=O)N[C@H](C(=O)NCCc1nc(-c2nc(C(=O)NCCC[S+](C)C)cs2)cs1)[C@@H](C)O)[C@@H](O[C@@H]1O[C@@H](CO)[C@@H](O)[C@H](O)[C@@H]1O[C@H]1O[C@H](CO)[C@@H](O)[C@H](OC(N)=O)[C@@H]1O)c1c[nH]cn1.[Br-]` [Bleomycin A2], in series [4], the “cell cycle effect in flow-cytometric analysis” value is given as “induced G2/M block” and the induction of apoptosis result is on record as “did not induce apoptosis”. With `O=C(O)CN(CC(=O)O)CC(=O)O.[Fe+3]` [ferric nitrilo tri-acetic acid], the DNA damage result in the series on DNA [5] was “produced the most DNA damage”. Regarding `N[C@@H](Cc1c[nH]cn1)C(=O)O` [l-histidine], the “sensitivity of hydrogen peroxide resistant cell lines” value in series [6] is “rendered sensitive”. The DNA destroyed entry in the series with DNA [3] (80 micromoles hydrogen peroxide with 300 micromoles l-histidine present) is given as “more than 50%”.
